Values of other authors in US20020068688A1, “Cleaning compositions” (Unilever Home & Personal Care USA, Division of Conopco, Inc., priority 2000, published 2002).

Conditions: grams of solid to form a saturated solution in 100 grams of water at 20° C.

SMILES: NC(N)=O [Urea]
- Water Solubility: >100 g/100 g
